Source: patent publication US7744867B2, “PTPase inhibitors and method of using same” (The Cleveland Clinic Foundation, priority 2001, dated 2010)

Columns and labels:
GST/SHP-1 fusion protein = biological target: T1, GST/SHP-1 fusion protein (Mus musculus, UniProt P29351); test: In vitro PTPase assay, dephosphorylation of a synthetic phosphotyrosine peptide; format: biochemical; settings: Sb concentration of 10 μg/ml
T1 construct: made in house
Method: In vitro PTPase activities were measured using the commercial protein tyrosine phosphatase assay kit (UBI) following established procedure. This assay measures the in vitro dephosphorylation of a synthetic phosphotyrosine peptide (R-R-L-I-E-D-A-E-pY-A-A-R-G). Briefly, 0.01 μg of GST/PTPase fusion protein was incubated in 50 μl of Tris buffer (10 mM Tris, […]) at 22° C. for 10 minutes, followed by addition of 0.2 mM of the phosphotyrosine peptide and incubation at 22° C. for 18 hours. 100 μl of Malachite Green solution was added and incubated for 5 minutes, and the absorbance at 660 nm was measured after 5 minutes.

intracellular Flag-PRL-1 = biological target: T2, intracellular Flag-PRL-1 (Homo sapiens, UniProt Q93096); test: PTPase activity of anti-Flag immunocomplexes from NIH3T3 transfectants; format: cell-based; settings: treated 5 min
T2 construct: expressed in transfected cells; host or cells: NIH3T3
T2 sequence (Q93096 whole entry): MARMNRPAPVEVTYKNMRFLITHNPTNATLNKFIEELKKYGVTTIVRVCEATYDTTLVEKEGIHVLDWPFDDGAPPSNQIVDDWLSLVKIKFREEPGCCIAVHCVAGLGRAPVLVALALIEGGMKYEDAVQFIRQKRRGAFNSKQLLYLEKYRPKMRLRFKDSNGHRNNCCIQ
Method: (§1) An expression construct of Flag-tagged PRL-1 or control vector was transfected into NIH3T3 cells which were then treated without or with sodium stibogluconate and used for immunoprecipitation assays with a monoclonal anti-Flag antibody. The immunocomplexes were analyzed by SDS-PAGE/Western blotting and PTPase assays. A Flag-tagged protein with a molecular weight approximately 22 kDa as expected for Flag-PRL-1 was detected in the immunocomplexes from untreated or sodium stibogluconate -treated Flag-PRL-1 transfectants but not in those from the control cells (FIG. 6A).
(§2) Glucatime inactivates intracellular PRL phosphatases. NIH3T3 stable transfectants of Flag-tagged PRL-1 (A), PRL-2 (B) and PRL-3 (C) were untreated or treated with glucatime for 5 minutes and then washed to remove cell free drug. The Flag-tagged PRLs were immunoprecipitated from the cells using a monoclonal anti-Flag antibody. The amounts of Flag-tagged PRLs in the immunocomplexes were quantified by SDS-PAGE/Western blotting with the anti-Flag antibody (the top panel). Activities of the immunocomplexes in dephosphorylating a synthetic phosphotyrosine peptide were determined by in vitro PTPase assays (the low panel).

intracellular Flag-PRL-3 = biological target: T3, intracellular Flag-PRL-3 (Homo sapiens, UniProt O75365); test: as above; format: cell-based; settings: treated 5 min
T3 construct: expressed in transfected cells; host or cells: NIH3T3
T3 sequence (O75365 whole entry): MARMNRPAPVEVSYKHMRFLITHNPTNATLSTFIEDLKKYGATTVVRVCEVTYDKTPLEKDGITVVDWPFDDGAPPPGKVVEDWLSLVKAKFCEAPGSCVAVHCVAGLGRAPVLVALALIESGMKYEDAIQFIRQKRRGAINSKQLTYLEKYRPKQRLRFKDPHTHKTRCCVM
Method: as §1, §2

DS cells (lymphoma) = test: Growth inhibition of human tumor cell lines (MTT); format: cell-based; settings: day 3; IFNα 1,000 u/ml
Method: FIG. 8 illustrates growth inhibition of human cell lines of hematopoietic malignancies by sodium stibogluconate and/or IFNα: A and B. Growth of DS and DR cells cultured in the absence or presence of various amounts of sodium stibogluconate and/or IFNα (1,000 u/ml) for 3 days was measured by MTT assays; C. Percentage of growth inhibition of DR cells calculated from data in B; D. Percentage of growth inhibition of DR cells by IFNα (1,000 u/ml) and various amounts of sodium stibogluconate in day 6 cultures measured by MTT assays; E. Percentage of growth inhibition of U266 cells by IFNα (1,000 u/ml) and various amounts of sodium stibogluconate in day 6 cultures as measured by MTT assays.

WM9 cells (Melanoma) = test: Growth inhibition of human tumor cell lines (MTT); format: cell-based
Source text: (§3) FIG. 9 illustrates growth inhibition of human cell lines of non-hematopoietic malignancies by sodium stibogluconate and/or IFNα. Percentage of growth inhibition of WM9 (A), DU145 (B), MDA231 (C) and WiT49-N1 (D) in the absence or presence of various amounts of sodium stibogluconate and/or IFNα (1,000 u/ml) in day 6 cultures as measured by MTT assays.
FIG. 10 illustrates sodium stibogluconate augments both IFNα- and IFNβ-induced growth inhibition of WM9 cells. Percentage of growth inhibition of WM9 cells in the absence or presence of various amounts of sodium stibogluconate, IFNα and IFNβ in day 6 cultures as measured by MTT assays. The data illustrates that sodium seems to interact with IFNα and IFNβ in a synergistic manner in growth inhibition of WM9 cells. Data from MTT antiproliferative assays was expressed as percent control growth (PCG) of treated cells, compared to untreated cells (100%). Median effect analysis (inset graphs), similar to isobol analysis, defined drug interaction in the IFNα+sodium stibogluconate and the IFNβ+sodium stibogluconate combinations as synergistic at all doses tested, characterized by a combination index (CI) of less than 1. Additivity is indicated by CI=1, and antagonism occurs when CI>1. Fraction affected (fa)=(100−PCG)/100.
Drug Interaction Analysis. Median effect analysis, which provides the most general form of studying the interactions between drugs, was utilized to analyze the interaction between sodium stibogluconate and IFNα or IFNβ. Since details regarding the mode of IFN and sodium stibogluconate interaction are not fully understood, and whether or not they act in a mutually exclusive fashion, we chose the most general analysis available. Dose response curves were generated for each drug alone, and also the combinations. Median effect plots were generated, which determined m and Dm values for IFN alone, sodium stibogluconate alone, and the combination. The combination index (CI) was determined and plotted vs. fraction affected (FA). Data were analyzed in both modes, mutually exclusive and mutually nonexclusive. […]

[1] = test system: DU145 cells (Prostate cancer); test: Growth inhibition of human tumor cell lines (MTT); format: cell-based
Source text: as §3

[2] = test system: MDA231 cells (Breast cancer); test: Growth inhibition of human tumor cell lines (MTT); format: cell-based
Source text: as §3

[3] = Tolerability in nude mice (viability, body weight, appearance); format: in vivo
Method: The effective dosage of sodium stibogluconate against WM9 and DU145 xenografts is well tolerated in nude mice. […] Thus dosage is much higher than the standard dose for Leishmaniasis (20 mg Sb/kg, daily). As an initial step to assess the toxicity of such a high dosage of sodium stibogluconate in nude mice, its effect on the viability and body weights of WM9 xenografts nude mice during the 25 day period of the study was determined.

T1 sequence (P29351 whole entry, the tested form may be a part): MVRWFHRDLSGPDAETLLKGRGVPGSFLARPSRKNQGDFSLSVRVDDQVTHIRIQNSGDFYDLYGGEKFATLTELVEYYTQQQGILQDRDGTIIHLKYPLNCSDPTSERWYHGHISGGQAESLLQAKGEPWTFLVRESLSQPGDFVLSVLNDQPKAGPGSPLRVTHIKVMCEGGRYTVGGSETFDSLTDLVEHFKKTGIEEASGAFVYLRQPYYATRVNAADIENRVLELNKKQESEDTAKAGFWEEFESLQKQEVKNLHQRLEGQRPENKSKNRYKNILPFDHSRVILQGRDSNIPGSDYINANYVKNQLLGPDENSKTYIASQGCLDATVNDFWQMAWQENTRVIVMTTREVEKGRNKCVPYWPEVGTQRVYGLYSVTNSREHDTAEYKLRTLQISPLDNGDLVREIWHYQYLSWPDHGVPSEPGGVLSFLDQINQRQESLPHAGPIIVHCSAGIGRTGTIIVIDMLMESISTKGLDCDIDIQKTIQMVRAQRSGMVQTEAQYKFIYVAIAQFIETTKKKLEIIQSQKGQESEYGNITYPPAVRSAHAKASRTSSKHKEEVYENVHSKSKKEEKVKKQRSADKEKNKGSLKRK

Row | Molecule | effect on recombinant SHP-1 (GST/SHP-1 fusion protein) | PTPase activity of Flag-PRL-1 immunocomplexes from treated transfectants (intracellular Flag-PRL-1) | PTPase activity of Flag-PRL-3 immunocomplexes from treated transfectants (intracellular Flag-PRL-3) | activity against DS cells (DS cells (lymphoma)) | cell killing as a single agent (WM9 cells (Melanoma); WM9, 50 μg/ml and 100 μg/ml, day 6 culture) | cell killing as a single agent ([1]; 50 μg/ml and 100 μg/ml, day 6 culture) | cell killing as a single agent ([2]; MDA231, 50 μg/ml and 100 μg/ml, day 6 culture) | tolerability ([3]; 12 mg Sb daily (440 mg Sb/kg daily), s.c., 25 day study) | daily dose that mice could tolerate ([3]; pilot study, approximately 700-800 mg Sb/kg) [mg Sb] | % of growth inhibition by day 6 (±s.d.) (WM9 cells (Melanoma); WM9, SS 12.5 μg/ml, IFNα 1,000 u/ml, alone or combined) | growth inhibition of WM-9 melanoma cells (WM9 cells (Melanoma); drug at 25-100 μg/ml, agents individually or in combination) [%] | % of growth inhibition by day 6 (±s.d.) ([1]; SS 12.5 μg/ml, IFNα 1,000 u/ml, alone or combined) | % of growth inhibition by day 6 (±s.d.) ([2]; MDA231, SS 12.5 μg/ml, IFNα 1,000 u/ml, alone or combined) | growth inhibition of MDA231 breast cancer cells ([2]; drug at 25 μg/ml, agents individually or in combination) [%]
1 | O.O.O.O.O.O.O.O.O.O=C([O-])[C@@H]1[O][Sb]2([O-])([O][Sb]34([OH])[O][C@H]([C@H](O)CO)[C@H]([O]3)[C@H](C(=O)[O-])[O]4)[O][C@H]([C@H](O)CO)[C@@H]1[O]2.[Na+].[Na+].[Na+] [sodium stibogluconate] | inactivated | little PTPase activities | lack of PTPase activity | modest activity | killed all cells | killed all cells | killed all cells | well tolerated with no serious side effect | 20 |  |  |  |  | 
2 | IFNα |  |  |  | almost completely eliminated |  |  |  |  |  | 58 (2) % | 58 | 70 (5) % | 79 (2) % | 79
